In paper PMC5460289, “Identification of New Shikonin Derivatives as Antitumor Agents Targeting STAT3 SH2 Domain” (Scientific Reports, 2017):

Columns and labels:
Type in all cases: cell-based, human
[1] = test system: Bcl-2, Bcl-xL, survivin and cyclin D1 in MDA-MB-231 cells; assay: Western blot of STAT3 downstream target genes expression; settings: MDA-MB-231, 24 h
Protocol: (§1) Figure 7 MDA-MB-231 cells were treated with indicated concentrations of PMM-172 or Stattic for 24 h, the expression levels of STAT3 in cytoplasmic and nuclear extracts were examined and relative expression levels were analyzed by Image J software. β-actin and Lamin B1 served as markers of cytoplasmic and nuclear extractions, respectively. […] (C) MCF-10A cells were treated with the indicated concentrations of PMM-172 for 24 h. PMM-172 had no effect on the level of the pSTAT3 level in MCF-10A cells. […] Data were shown as mean ± SD from three independent experiments, **P < 0.01. Cropped blots/gels were used in the figure and the gels had been run under the same experimental conditions; the full-length blots/gels are presented in Supplementary Figure S3.
STAT3 target genes are vital to the dysfunctional biology processes induced by the aberrantly activated STAT3. Therefore, we investigated whether PMM-172 suppresses the expression of STAT3-regulated genes related to cell survival, proliferation and apoptosis in MDA-MB-231 cells.
(§2) Cells were rinsed twice with cold PBS and then lysed with RIPA buffer containing a protease inhibitor mixture at 1:100 dilution on ice for 30 min. Insoluble components of cell lysates were removed by centrifugation (4 °C, 12000 rmp, 10 min), and protein concentrations were measured using a Pierce BCA protein assay kit. […]

[2] = test system: STAT3-TATA-Luc reporter in MDA-MB-231 cells; assay: STAT3 dual-luciferase reporter assay; settings: MDA-MB-231, 24 h treatment
Protocol: Figure 3 MDA-MB-231 cells were transfected with STAT3-TATA-Luc reporter and Renilla luciferase reporter plasmids. After 24 h, cells were treated with indicated concentrations of PMM-172 or Stattic for 24 h and then luciferase intensity was measured. Results are fold change ± SD of three independent experiments, *P < 0.05, **P < 0.01.
Cells were seeded in 24 well plates and transiently transfected together with STAT3 reporter plasmid 4 × M67 pTATA TK-Luc (0.2 μg/per well, Addgene, USA) and Renilla luciferase control reporter plasmid pRL-CMV (0.1 μg/per well, promega, USA), using lipofectamine 2000 (Invitrogen, USA). Then the cells were incubated with complete medium for 24 h with PMM-172 or Stattic. Following the treatment, the cells were harvested in 100 μL of passive lysis buffer (Promega, USA) in each well. A 25 μL aliquot of cell lysate was subjected to a luciferase assay by using the dual-luciferase assay kit (Promega, USA). STAT3 luciferase activity was measured by EnVision Mutilabel Reader (Perkin Elmer, USA). Relative luciferase activity was calculated after the activity of STAT3-dependent firefly luciferase had been normalized to that of Renilla luciferase. All values are expressed as - fold induction relative to basal activity.

pSTAT3 in MCF-10A cells = assay: Western blot of pSTAT3 in non-tumorigenic cells; settings: 24 h, increasing doses
Protocol: as §1
In the following work, we examined whether PMM-172 could affect the activity of STAT3 and viability in non-cancer cells. The non-tumorigenic MCF-10A epithelial cells were employed to be treated with increasing doses of PMM-172 to conduct this assay.
as §2

[3] = test system: STAT3 nuclear localization in MDA-MB-231 cells; assay: STAT3 nuclear localization (cytoplasmic and nuclear extracts, Western blot); settings: MDA-MB-231, 24 h
Protocol: It is known that the dimerization of STAT3 is induced by the phosphorylation at residue Tyr 705, which then leads to its nuclear translocation. Herein, we investigated the effect of PMM-172 and Stattic on STAT3 nuclear translocation. The cytoplasmic and nuclear proteins of treated cells were extracted and the expressions of STAT3 in both fractions were examined.
as §1
To examine the relative proportion of STAT3 in the cytoplasm and nucleus, cytoplasmic and nuclear extracts were prepared. In brief, control and treated cells were collected and suspended in a buffer containing 10 mM HEPES (pH 7.9), 10 mM KCl, 0.1 mM EDTA (pH 8.0), 0.1 mM EGTA (pH 7.0), 1 mM DTT, 0.5 mM PMSF, 2 μg/mL leupeptin, 2 μg/mL aprotonin, 0.5 mg/mL benzamidine. After 15 min, NP-40 (0.25%) was added, and cell lysate was vortexed for 10 s and centrifuged at 10000 rmp at 4 °C for 1 min. […] The protein content in the nuclear and cytoplasmic fractions was determined using a Pierce BCA protein assay kit.
as §2

COc1cc(OC)cc(-c2nnc(SCC(=O)O[C@H](CC=C(C)C)C3=CC(=O)c4c(O)ccc(O)c4C3=O)o2)c1 [PMM-172, (R)-1-(5,8-dihydroxy-1,4-dioxo-1,4-dihydronaphthalen-2-yl)-4-methylpent-3-en-1-yl 2-((5-(3,5-dimethoxyphenyl)-1,3,4-oxadiazol-2-yl)thio)acetate]
expression of STAT3 target genes Bcl-2, Bcl-xL, survivin and cyclin D1 [1]: down-regulated the expression of Bcl-2, Bcl-xL, survivin and cyclin D1 in a dose-dependent manner | STAT3 luciferase activity [2]: decreased the STAT3 luciferase activity in a dose-dependent manner | expression levels of total STAT3 in MCF-10A cells (pSTAT3 in MCF-10A cells): kept unchanged | pSTAT3 level in MCF-10A cells (pSTAT3 in MCF-10A cells): had no effect | level of STAT3 in the cytoplasmic fraction [3]: slightly increased | level of STAT3 in the nuclear fraction [3]: decreased by PMM-172 in a dose-dependent manner
